Series [1] relates to Staphylococcus aureus Smith (MSSA). The series is described as follows: Broth microdilution MIC, S. aureus Smith. It is filed as cell-based. To be noted: Staphylococcus aureus Smith (MSSA); for MIC: read-out: MIC S. a. Smith. The protocol: (§1) Compounds were evaluated for antimicrobial activity against a panel of bacterial strains using a broth microdilution assay performed as recommended by the NCCLS (NCCLS (National Committee for Clinical Laboratory Standards). 1993. Methods for dilution antimicrobial susceptibility tests for bacteria that grow aerobically. NCCLS Document M7-A3, 1993. In: NCCLS Antimicrobial Susceptibility Testing, 3rd Ed.)
(§2) The minimum inhibitory concentration (MIC) is defined as the lowest concentration of a compound that prevents the growth of the bacteria.
(Broth dilution looks for growth in wells or tubes with falling amounts of substance.)

Series [2] deals with Staphylococcus aureus ATCC 29213 (MSSA). Nature of the series: Broth microdilution MIC, S. aureus ATCC 29213. To be noted: Staphylococcus aureus ATCC 29213 (MSSA); for MIC: read-out: MIC S. a. 29213. It is filed as cell-based. As to the method: as §1, §2
The subject of series [3] is Staphylococcus aureus COL (MRSA, non-β-lactamase producing). Nature of the series: Broth microdilution MIC, S. aureus COL. The conditions noted are these: Staphylococcus aureus COL (MRSA, non-β-lactamase producing); for MIC: read-out: MIC S. a. COL. It is filed as cell-based. As to the method: as §1, §2
Series [4] deals with Staphylococcus aureus 76 (MRSA, β-lactamase producing). The series is described as follows: Broth microdilution MIC, S. aureus 76. Format: cell-based. To be noted: Staphylococcus aureus 76 (MRSA, β-lactamase producing); for MIC: read-out: MIC S. a. 76. The protocol: as §1, §2
Series [5] concerns Enterococcus faecalis ATCC 29212. The series is described as follows: Broth microdilution MIC, E. faecalis ATCC 29212. It is filed as cell-based. The conditions noted are these: Enterococcus faecalis ATCC 29212; for MIC: ATCC29212, read-out: MIC E. f. 29212. As to the method: as §1, §2
Series [6] has as its system Enterococcus faecium ATCC 35667. The series is described as follows: Broth microdilution MIC, E. faecium ATCC 35667. Format: cell-based. The conditions noted are these: Enterococcus faecium ATCC 35667; for MIC: ATCC35667, read-out: MIC E. f. 35667. As to the method: as §1, §2
Series [7] can be described thus: Human serum binding by ultrafiltration. Format: in vitro ADME. The protocol: Binding of several representative compounds of this invention in pooled human serum was determined using ultrafiltration. Compounds were incubated in serum for 10 minutes at 37° C. in a shaking water bath. Serum ultrafiltrate was accomplished by centrifugation (Amicon Centrifree) for 20 minutes at 25° C. Compound content in the ultrafiltrate was quantified by HPLC. An ultrafilrate obtained by following the same procedure with no added compound was used as a standard.

A further series has as its system S. aureus strain Smith. Nature of the series: Experimental infection of mice, ED50. The conditions noted are these: 50% efficacious dose, S. aureus Smith, mice challenged intraperitoneally, compound subcutaneously at 0 and 2 h, total dose, 72 h survival; for ED50: Staphylococcus aureus, read-out: ED50, mg/kg (95% C.I.). It is filed as in vivo, Swiss-Webster mice. As to the method: Staphylococcus aureus strain Smith (ATCC 13709, penicillin-susceptible) or strain 76 (methicillin-resistant) was cultured overnight at 37° C. in brain-heart infusion broth (BHIB). The following morning, a portion of the culture was transferred to fresh BHIB and incubated for an additional 4-5 hours at 37° C. The cells were harvested by centrifugation, washed twice with PBS, and adjusted to the desired inoculum amount. The cell suspension was mixed with an equal volume of sterile 14% hog-gastric mucin (Comber K. R.; Osborne C. D.; Sutherland R.: Comparative effects of amoxicillin and ampicillin in the treatment of experimental mouse infections. Antimicrobial Agents and Chemotherapy 7(2):179-185, 1975). The inoculum was kept in an ice bath until used (preferably in less than one hour).
Male Swiss-Webster mice were challenged intraperitoneally with 0.5 mL of a bacterial suspension of S. aureus strain Smith (LD50). Test compounds were administered subcutaneously in 0.1 mL volumes immediately after inoculation and 2 hours later. […] The total dose associated with 50% survival (ED50) was determined using the probit method (Pasiello, A. P., J. M. Essigmann, and G. N. Wogan.: Rapid and accurate determination of median lethal dose (LD50) and its error with a small computer. J Toxicol. Environ. Health. 3:797-809, 1977).

Where [8] appears, read: pooled human serum, ultrafiltration, 10 minutes at 37° C.

≈ marks a conversion by molar mass, not a printed value. Like-named read-outs stand apart in the source and are kept apart here. A value given as a limit tells only on which side of the number the result lay.

With `Nc1nc(/C(=N/O)C(=O)N[C@@H]2C(=O)N3C(C(=O)O)=C(Sc4ccncc4CO)CS[C@H]23)c(Cl)s1` [Compound 28], the MIC came out at 0.125 µg/mL (≈ 0.23 µM) in series [1]; 0.5 µg/mL (≈ 0.921 µM) in series [2]; 2 µg/mL (≈ 3.68 µM) in series [3]; 2 µg/mL (≈ 3.68 µM) in series [4]; 0.25 µg/mL (≈ 0.46 µM) in series [5]; 1 µg/mL (≈ 1.84 µM) in series [6]. Besides, the “HSB, human serum binding” value in series [7] (setting [8]) was greater than 99%.

As for `Nc1nc(/C(=N/O)C(=O)N[C@@H]2C(=O)N3C(C(=O)O)=C(Sc4ccncc4CSc4cccnc4N)CS[C@H]23)c(Cl)s1` [Compound 29], in series [1], the “MIC S. a. Smith” value was 0.25 µg/mL (≈ 0.384 µM). Besides, in series [2], the “MIC S. a. 29213” value came to 0.125 µg/mL (≈ 0.192 µM). Moreover, the “MIC S. a. COL” value in series [3] was determined as 1 µg/mL (≈ 1.54 µM). Besides, the “MIC S. a. 76” value in series [4] came to 2 µg/mL (≈ 3.07 µM). Also, the “MIC E. f. 29212” value in series [5] stood at 0.125 µg/mL (≈ 0.192 µM). For the same compound, the “MIC E. f. 35667” value in series [6] was determined as 0.5 µg/mL (≈ 0.768 µM). The “ED50, mg/kg (95% C.I.)” value in the series on S. aureus strain Smith is given as greater than 5 mg/kg.

Regarding `Nc1nc(/C(=N/OC2CCCC2)C(=O)N[C@@H]2C(=O)N3C(C(=O)O)=C(Sc4ccnn4-c4ccccc4)CS[C@H]23)cs1` [Compound 13], the MIC in series [1] is 0.5 µg/mL (≈ 0.817 µM); in series [2], 0.5 µg/mL (≈ 0.817 µM); in series [3], 2 µg/mL (≈ 3.27 µM); in series [4], 4 µg/mL (≈ 6.54 µM); in series [5] it was 2 µg/mL (≈ 3.27 µM); in series [6] it was 4 µg/mL (≈ 6.54 µM). In the series on S. aureus strain Smith, the ED50 was greater than 10 mg/kg.

For the compound `Nc1nc(/C(=N/OCC2CC2)C(=O)N[C@@H]2C(=O)N3C(C(=O)O)=C(Sc4ccnn4-c4ccccc4)CS[C@H]23)cs1` [Compound 19], the MIC in series [1] is 0.5 µg/mL (≈ 0.837 µM); in series [2], 0.5 µg/mL (≈ 0.837 µM); in series [3], 4 µg/mL (≈ 6.69 µM); in series [4] it was 8 µg/mL (≈ 13.4 µM); in series [5], 16 µg/mL (≈ 26.8 µM); in series [6], 16 µg/mL (≈ 26.8 µM). Also, in the series on S. aureus strain Smith, the ED50 is greater than 10 mg/kg.

As for `Cc1nnc(SC2=C(C(=O)O)N3C(=O)[C@@H](NC(=O)/C(=N\O)c4nc(N)sc4Cl)[C@H]3SC2)s1` [Compound 33], in series [1], the “MIC S. a. Smith” value is 0.5 µg/mL (≈ 0.936 µM). For the same compound, the “MIC S. a. 29213” value in series [2] amounted to 1 µg/mL (≈ 1.87 µM). Also, the “MIC S. a. COL” value in series [3] was found to be 4 µg/mL (≈ 7.49 µM). For the same compound, in series [4], the “MIC S. a. 76” value turned out to be 8 µg/mL (≈ 15 µM). In addition, the “MIC E. f. 29212” value in series [5] stood at 1 µg/mL (≈ 1.87 µM). In addition, in series [6], the “MIC E. f. 35667” value came out at 4 µg/mL (≈ 7.49 µM).

Turning to `CCC(CC)O/N=C(\C(=O)N[C@@H]1C(=O)N2C(C(=O)O)=C(Sc3ccnn3-c3ccccc3)CS[C@H]12)c1csc(N)n1` [Compound 17], the MIC in series [2] was 0.5 µg/mL (≈ 0.815 µM); in series [3], 2 µg/mL (≈ 3.26 µM); in series [4], 4 µg/mL (≈ 6.52 µM); in series [5], 2 µg/mL (≈ 3.26 µM); in series [6] it was 4 µg/mL (≈ 6.52 µM). Besides, in the series with S. aureus strain Smith, the ED50 is greater than 10 mg/kg.

Take `Nc1nc(/C(=N/OCCF)C(=O)N[C@@H]2C(=O)N3C(C(=O)O)=C(Sc4ccnn4-c4ccccc4)CS[C@H]23)c(Cl)s1` [Compound 16]: the MIC in series [1] was found to be 0.5 µg/mL (≈ 0.801 µM); in series [2], 0.5 µg/mL (≈ 0.801 µM); in series [3], 2 µg/mL (≈ 3.2 µM); in series [4] it was 4 µg/mL (≈ 6.41 µM); in series [5], 1 µg/mL (≈ 1.6 µM); in series [6], 4 µg/mL (≈ 6.41 µM).

Take `NC(=O)NCCSCc1cnccc1SC1=C(C(=O)O)N2C(=O)[C@@H](NC(=O)/C(=N\O)c3nc(N)sc3Cl)[C@H]2SC1` [Compound 30]: in series [1], the “MIC S. a. Smith” value was determined as 0.5 µg/mL (≈ 0.775 µM). In addition, in series [2], the “MIC S. a. 29213” value is 0.5 µg/mL (≈ 0.775 µM). For the same compound, the “MIC S. a. COL” value in series [3] is 4 µg/mL (≈ 6.2 µM). Besides, the “MIC S. a. 76” value in series [4] was 4 µg/mL (≈ 6.2 µM). The “MIC E. f. 29212” value in series [5] is 0.125 µg/mL (≈ 0.194 µM). Further, the “HSB, human serum binding” value in series [7] is 96%.

As for `Nc1nc(C(=NO)C(=O)N[C@@H]2C(=O)N3C(C(=O)O)=C(Sc4cnns4)CSC23)c(Cl)s1` (stereo partly drawn) [Compound 43, (7R)-7-[2-(2-Amino-5-chlorothiazol-4-yl)-2-hydroxyiminoacetylamino]-8-oxo-3-([1,2,3]thiadiazol-5-ylsulfanyl)-5-thia-1-aza-bicyclo[4.2.0]oct-2-ene-2-carboxylic acid], the MIC in series [1] is 0.06 µg/mL (≈ 0.115 µM); in series [2], less than 0.06 µg/mL; in series [3], 0.5 µg/mL (≈ 0.962 µM); in series [4], 1 µg/mL (≈ 1.92 µM); in series [5] it was 0.125 µg/mL (≈ 0.24 µM); in series [6] it was 0.5 µg/mL (≈ 0.962 µM). In series [7] (setting [8]), the “HSB, human serum binding” value is reported as 96% (−).

The MIC is the least concentration at which growth counts as inhibited.

These data come from patent US6599893B2, “Cephalosporin antibiotics and prodrugs thereof” (Essential Therapeutics, Inc., priority 2000, dated 2003).
